Consider 4 compounds from patent publication US20250034216A1, “STEREOSELECTIVE COVALENT LIGANDS FOR ONCOGENIC AND IMMUNOLOGICAL PROTEINS” (The Scripps Research Institute, priority 2021, published 2025).

Test [1] addresses T1, CHUK_C406 (Homo sapiens, UniProt O15111).
T1 construct: endogenous in cells; host or cells: 22Rv1
T1 sequence (O15111 1-745): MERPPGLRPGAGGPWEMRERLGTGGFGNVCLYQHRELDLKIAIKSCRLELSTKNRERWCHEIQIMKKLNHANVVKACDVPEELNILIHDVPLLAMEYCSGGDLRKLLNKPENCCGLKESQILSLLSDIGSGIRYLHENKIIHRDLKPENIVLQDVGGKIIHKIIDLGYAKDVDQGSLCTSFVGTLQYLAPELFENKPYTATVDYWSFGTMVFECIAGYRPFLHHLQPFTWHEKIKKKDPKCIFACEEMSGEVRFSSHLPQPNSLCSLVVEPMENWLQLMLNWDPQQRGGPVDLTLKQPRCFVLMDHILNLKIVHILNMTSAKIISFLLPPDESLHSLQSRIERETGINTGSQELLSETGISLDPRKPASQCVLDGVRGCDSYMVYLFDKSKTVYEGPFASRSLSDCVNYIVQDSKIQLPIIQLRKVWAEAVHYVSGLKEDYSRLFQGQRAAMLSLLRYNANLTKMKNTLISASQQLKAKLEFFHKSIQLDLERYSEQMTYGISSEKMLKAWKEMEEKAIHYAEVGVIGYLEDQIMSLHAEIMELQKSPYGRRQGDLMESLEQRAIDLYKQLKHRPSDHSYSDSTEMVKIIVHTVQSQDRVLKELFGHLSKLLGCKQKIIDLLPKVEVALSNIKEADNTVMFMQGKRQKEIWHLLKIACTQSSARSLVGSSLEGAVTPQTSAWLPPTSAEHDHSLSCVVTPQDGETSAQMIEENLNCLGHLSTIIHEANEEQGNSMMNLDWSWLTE
The test can be described thus: IA-DTB cysteine engagement. It is filed as binding. The note with it: 22Rv1 cells, 20 μM probe, 1 h, relative to DMSO. A digest of the protocol:
(§1)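 Cells were treated in situ with electrophilic probes, then lysed, and the lysates (2 mg/mL protein) were labeled with IA-DTB for 1 h at ambient temperature. After reduction, alkylation and trypsin digestion, labeled peptides were streptavidin-enriched, TMT-labeled and fractionated. Engagement ratios are probe vs DMSO reporter intensities, averaged across replicates.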

Test [2] concerns the target T2, NT5DC2_C504 (Homo sapiens, UniProt Q9H857).
T2 construct: endogenous in cells; host or cells: 22Rv1
T2 sequence (Q9H857 1-520): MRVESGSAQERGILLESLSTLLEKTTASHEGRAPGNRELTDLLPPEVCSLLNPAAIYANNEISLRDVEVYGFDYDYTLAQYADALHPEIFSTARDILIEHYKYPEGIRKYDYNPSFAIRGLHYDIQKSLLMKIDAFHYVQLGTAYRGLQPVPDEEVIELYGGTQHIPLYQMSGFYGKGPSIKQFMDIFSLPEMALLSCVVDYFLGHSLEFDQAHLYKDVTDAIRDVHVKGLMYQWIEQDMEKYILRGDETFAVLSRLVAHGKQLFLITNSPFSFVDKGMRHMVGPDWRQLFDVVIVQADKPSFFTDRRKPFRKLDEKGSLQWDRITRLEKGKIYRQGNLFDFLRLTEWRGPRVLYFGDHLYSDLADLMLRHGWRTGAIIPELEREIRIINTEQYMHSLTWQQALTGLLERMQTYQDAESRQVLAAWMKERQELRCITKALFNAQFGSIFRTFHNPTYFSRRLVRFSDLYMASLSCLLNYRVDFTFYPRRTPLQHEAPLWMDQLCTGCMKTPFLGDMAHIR
The test can be described thus: IA-DTB cysteine engagement. The note with it: 22Rv1 cells, 20 μM probe, 1 h, relative to DMSO. It counts as binding. The gist of the method: as §1

SMILES strings stand for the structures.

Take `C=CC(=O)N1C[C@@H](c2ccc(Br)cc2)[C@H]1C(=O)Nc1cccc2cccnc12` [MY-1A, (2S,3R)-1-acryloyl-3-(4-bromophenyl)-N-(quinolin-8-yl)azetidine-2-carboxamide]: in test [1], the “% engagement CHUK_C406” value is on record as 51.5%. Moreover, in test [2], the “% engagement NT5DC2_C504” value is given as 85.5%.

Take `C=CC(=O)N1C[C@H](c2ccc(Br)cc2)[C@@H]1C(=O)Nc1cccc2cccnc12` [MY-1B, (2R,3S)-1-acryloyl-3-(4-bromophenyl)-N-(quinolin-8-yl)azetidine-2-carboxamide]: the “% engagement CHUK_C406” value in test [1] is given as 28.5%. The “% engagement NT5DC2_C504” value in test [2] is 75%.

Consider `C=CC(=O)N1C[C@H](c2ccc(Br)cc2)[C@H]1C(=O)Nc1cccc2cccnc12` [MY-3A, (2S,3S)-1-acryloyl-3-(4-bromophenyl)-N-(quinolin-8-yl)azetidine-2-carboxamide], for which, in test [1], the “% engagement CHUK_C406” value came to 0%. Besides, the “% engagement NT5DC2_C504” value in test [2] came to 54.5%.

Consider `C=CC(=O)N1C[C@H](c2ccc(Br)cc2)[C@H]1C(=O)Nc1cccc2cccnc12` [MY-3B, (2S,3S)-1-acryloyl-3-(4-bromophenyl)-N-(quinolin-8-yl)azetidine-2-carboxamide], for which the “% engagement CHUK_C406” value in test [1] is 97%. For the same compound, the “% engagement NT5DC2_C504” value in test [2] turned out to be 59%.
